pEC50: −log10 of the molar value. “Also recorded” adds a separate entry of the source.
Assays:
[1] = test system: female C.B-17 SCID mice injected with CD45RBhigh cells; experiment: CD4+ Inflammatory Bowel Disease (IBD) model in SCID mice; format: in vivo, mouse
Description: In this murine model, female C.B-17 SCID mice are injected intraperitoneally (IP) with CD45RB^high cells, a subset of CD4^+ T cells obtained from normal BALB/c mice, to induce spontaneous chronic inflammation in the large intestine. Gross and histopathologic changes resulting from this treatment resemble those occurring in Crohn's disease and ulcerative colitis in humans.
On study day 0, Balb/C mice were terminated, and spleens were obtained for CD45RB^high cell isolation per the SCID IBD cell separation protocol. SCID mice were weighed and received intraperitoneal (IP) injections of the sorted cells (approx. 4×10^6 cells/ml, 100 μl/mouse injections). On study day 21, mice were weighed and randomized by body weight loss into treatment groups, and daily (QD), oral (PO) dosing was initiated. Dosing continued through study day 41, and mice were terminated on day 42.
For each animal, the entire colon (proximal and distal) was trimmed into 8 equally spaced pieces for processing and embedding. Sections were stained with hemotoxylin and eosin (H&E). For each H&E stained section, submucosal edema was quantitated by measuring the distance from the muscularis mucosa to the internal border of the outer muscle layer in a non tangential area thought to most represent the severity of this change. Mucosal thickness was also measured in a non-tangential area of the section that best represented the overall mucosal thickness. This parameter is indicative of gland elongation and mucosal hyperplasia.
Parameters that were scored using percent involvement included: (1) Colon glandular epithelial loss—this includes crypt epithelial as well as remaining gland epithelial loss; and (2) Colon Erosion—this reflects loss of surface epithelium and generally is associated with mucosal hemorrhage (reflective of the bleeding seen clinically and at necropsy).
The 4 important scored parameters (inflammation, glandular epithelial loss, erosion, hyperplasia) were ultimately summed to arrive at a sum of histopathology scores, which indicates the overall damage and would have a maximum score of 20.
Inflammatory cell infiltrates in the colonic mucosa were evaluated for approximate % of neutrophils in the total infiltrate using the criteria below.
This value was then multiplied by the inflammation score in an attempt to semiquantify relative PMN infiltration across sections and animals.

[2] = test system: TLR9 (CPG-A induced cytokines); experiment: CPG-A induced cytokine production in PBMCs; format: cell-based, human
Description: Human PBMCs were stimulated with CPG-A. CPG-A selectively activates PDCs, inducing IFN-α production via TLR9. IFN-α is a PDC cell selective readout. Primary human PBMCs from two normal human donors were used as a source of PDC cells. 200 K cells per well were used. […] Then the cells were treated with the specified concentration of CPG-A for 16 hours. RPMI-5% serum was employed.
(§1) These experiments were conducted using PBMCs.

[3] = test system: TL2/TLR6 (PAM2CSK4 induced cytokines); experiment: PAM2CSK4 induced cytokine production in PBMCs; format: cell-based, human
Description: as §1

[4] = test system: Human T-cell proliferation; experiment: Human T-cell proliferation; format: cell-based

`C[C@H](Nc1ncnc2[nH]cnc12)c1cc2cccc(Cl)c2c(=O)n1-c1ccccc1` [Compound 292] was tested. Which Colon hyperplasia reduction ([1]; 1 mg/kg PO QD, total colon) did it give?
The Colon hyperplasia reduction was 32%.

What about the Mucosal thickness reduction ([1]; 1 mg/kg PO QD, total colon) of the same molecule?
Its Mucosal thickness reduction is 31%.

What about the “Colon weight reduction toward normal” value ([1]; 1 mg/kg PO QD, vs vehicle) of the same molecule?
Its value is 34%.

And the Colon inflammation reduction ([1]; 3 mg/kg PO QD, distal colon)?
The Colon inflammation reduction was 42%.

What about the Gland loss reduction ([1]; 3 mg/kg PO QD, distal colon) of the same molecule?
The Gland loss reduction was 52%.

What about the Hyperplasia reduction ([1]; 3 mg/kg PO QD, distal colon) of the same molecule?
The Hyperplasia reduction was 61%.

What about the Mucosal thickness reduction ([1]; 3 mg/kg PO QD, distal colon) of the same molecule?
Its Mucosal thickness reduction is 64%.

What about the Neutrophil score reduction ([1]; 3 mg/kg PO QD, distal colon) of the same molecule?
Its Neutrophil score reduction is 66%.

And the PMN percent reduction ([1]; 3 mg/kg PO QD, distal colon)?
The PMN percent reduction was 56%.

And the “Summed histopathology score reduction” value ([1]; 3 mg/kg PO QD, distal colon)?
Its value is 52%.

What about the Colon inflammation reduction ([1]; 3 mg/kg PO QD, proximal colon) of the same molecule?
Its Colon inflammation reduction is 19%.

And the Gland loss reduction ([1]; 3 mg/kg PO QD, proximal colon)?
The Gland loss reduction was 24%.

And the Hyperplasia reduction ([1]; 3 mg/kg PO QD, proximal colon)?
The Hyperplasia reduction was 37%.

What about the Mucosal thickness reduction ([1]; 3 mg/kg PO QD, proximal colon) of the same molecule?
The Mucosal thickness reduction was 36%.

What about the Neutrophils score reduction ([1]; 3 mg/kg PO QD, proximal colon) of the same molecule?
Its Neutrophils score reduction is 43%.

What about the PMN percent reduction ([1]; 3 mg/kg PO QD, proximal colon) of the same molecule?
Its PMN percent reduction is 39%.

And the “Summed histopathology score reduction” value ([1]; 3 mg/kg PO QD, proximal colon)?
The value was 28%.

And the Colon hyperplasia reduction ([1]; 3 mg/kg PO QD, total colon)?
Its Colon hyperplasia reduction is 49%.

And the Colon inflammation reduction ([1]; 3 mg/kg PO QD, total colon)?
Its Colon inflammation reduction is 30%.

What about the Gland loss reduction ([1]; 3 mg/kg PO QD, total colon) of the same molecule?
The Gland loss reduction was 38%.

What about the Mucosal thickness reduction ([1]; 3 mg/kg PO QD, total colon) of the same molecule?
Its Mucosal thickness reduction is 51%.

And the Neutrophil score reduction ([1]; 3 mg/kg PO QD, total colon)?
Its Neutrophil score reduction is 54%.

What about the PMN percent reduction ([1]; 3 mg/kg PO QD, total colon) of the same molecule?
The PMN percent reduction was 47%.

What about the “Summed histopathology score reduction” value ([1]; 3 mg/kg PO QD, total colon) of the same molecule?
The value was 40%.

And the “Colon weight reduction toward normal” value ([1]; 3 mg/kg PO QD, vs vehicle)?
Its value is 50%.

What about the Colon inflammation reduction ([1]; 10 mg/kg PO QD, distal colon) of the same molecule?
Its Colon inflammation reduction is 28%.

And the “Colon mucosal thickness reduction” value ([1]; 10 mg/kg PO QD, distal colon)?
Its value is 46%.

And the Gland loss reduction ([1]; 10 mg/kg PO QD, distal colon)?
Its Gland loss reduction is 39%.

And the Hyperplasia reduction ([1]; 10 mg/kg PO QD, distal colon)?
Its Hyperplasia reduction is 46%.

What about the “Summed histopathology score reduction” value ([1]; 10 mg/kg PO QD, distal colon) of the same molecule?
Its value is 38%.

And the Colon edema reduction ([1]; 10 mg/kg PO QD, proximal colon)?
Its Colon edema reduction is 68%.

What about the Colon inflammation reduction ([1]; 10 mg/kg PO QD, proximal colon) of the same molecule?
Its Colon inflammation reduction is 17%.

And the Erosion reduction ([1]; 10 mg/kg PO QD, proximal colon)?
Its Erosion reduction is 94%.

And the Gland loss reduction ([1]; 10 mg/kg PO QD, proximal colon)?
Its Gland loss reduction is 26%.

And the Hyperplasia reduction ([1]; 10 mg/kg PO QD, proximal colon)?
The Hyperplasia reduction was 45%.

And the Mucosal thickness reduction ([1]; 10 mg/kg PO QD, proximal colon)?
Its Mucosal thickness reduction is 43%.

What about the Neutrophil score reduction ([1]; 10 mg/kg PO QD, proximal colon) of the same molecule?
The Neutrophil score reduction was 45%.

And the PMN percent reduction ([1]; 10 mg/kg PO QD, proximal colon)?
Its PMN percent reduction is 37%.

What about the “Summed histopathology score reduction” value ([1]; 10 mg/kg PO QD, proximal colon) of the same molecule?
The value was 31%.

What about the Absolute body weight ([1]; 10 mg/kg PO QD, significant days 27-31, 35, 39, vs vehicle) of the same molecule?
Its Absolute body weight is “significantly (by ANOVA) increased”.

What about the Colon edema reduction ([1]; 10 mg/kg PO QD, total colon) of the same molecule?
Its Colon edema reduction is 60%.

What about the Colon hyperplasia reduction ([1]; 10 mg/kg PO QD, total colon) of the same molecule?
The Colon hyperplasia reduction was 46%.

What about the Colon inflammation reduction ([1]; 10 mg/kg PO QD, total colon) of the same molecule?
The Colon inflammation reduction was 24%.

And the Gland loss reduction ([1]; 10 mg/kg PO QD, total colon)?
The Gland loss reduction was 33%.

And the Mucosal thickness reduction ([1]; 10 mg/kg PO QD, total colon)?
Its Mucosal thickness reduction is 45%.

And the Neutrophil score reduction ([1]; 10 mg/kg PO QD, total colon)?
The Neutrophil score reduction was 44%.

And the PMN percent reduction ([1]; 10 mg/kg PO QD, total colon)?
Its PMN percent reduction is 37%.

What about the “Summed histopathology score reduction” value ([1]; 10 mg/kg PO QD, total colon) of the same molecule?
Its value is 35%.

What about the “Colon weight reduction toward normal” value ([1]; 10 mg/kg PO QD, vs vehicle) of the same molecule?
Its value is 51%.

What about the “CPG-A induced IFN-α production” value [2] of the same molecule?
Its value is “potently inhibited; also recorded: blocked”.

What about the “CPG-A induced IL-6 production” value [2] of the same molecule?
The value was “Inhibited”.

What about the “CPG-A induced IL-8 production” value [2] of the same molecule?
Its value is “Inhibited”.

What about the “CPG-A induced TNF-α production” value [2] of the same molecule?
Its value is “Inhibited”.

What about the “PAM2CSK4 induced IL-1 production” value [3] of the same molecule?
Its value is “Inhibited”.

What about the “PAM2CSK4 induced IL-6 production” value [3] of the same molecule?
The value was “Inhibited”.

And the “PAM2CSK4 induced IL-8 production” value [3]?
The value was “Inhibited”.

What about the “PAM2CSK4 induced TNF-α production” value [3] of the same molecule?
The value was “Inhibited”.

What about the pEC50 [4] of the same molecule?
The pEC50 was 8.02.

Reference: patent publication US9527847B2, “Treatment of lupus, fibrotic conditions, and inflammatory myopathies and other disorders using PI3 kinase inhibitors” (INFINITY PHARMACEUTICALS, INC., priority 2012, dated 2016)
